Read-outs that look alike come from different tables or passages of the source.
Experiments:
HEK-293 mock cells = test: Control in mock-transfected HEK-293 cells (cAMP, ERK phosphorylation); type: cell-based, human
Method: ERK phosphorylation was monitored by western blotting after treatment of cells with 10 μM of ligands at different times ranging from 2 to 60 minutes. […] The kinetics of ERK phosphorylation elicited by 5-CT, Serodolin and MOA-51 were very similar: activation was fast and transient, and reached a pick between 2 and 7 minutes after drug exposure. However, ERK phosphorylation-induced by Serodolin and MOA-51 was more protracted compared to 5-CT, the reference agonist.

mouse = test: Effect on body temperature; type: in vivo; conditions: intravenous
Excerpt: FIG. 13: Evaluation of the effect of Serodolin on body temperature.
FIG. 17: Evaluation of the effect of MOA51 on body temperature. Results expressed in ° C.
The time course of the effect of Serodolin on the body temperature has been evaluated in the mouse following intravenous administration.

human 5-HT2A receptor = human 5-HT2A receptor (Homo sapiens (Human), UniProt P28223); test: Radioligand binding competition, 5-HT2A; conditions: selectivity panel
Chain of human 5-HT2A receptor (P28223 whole entry): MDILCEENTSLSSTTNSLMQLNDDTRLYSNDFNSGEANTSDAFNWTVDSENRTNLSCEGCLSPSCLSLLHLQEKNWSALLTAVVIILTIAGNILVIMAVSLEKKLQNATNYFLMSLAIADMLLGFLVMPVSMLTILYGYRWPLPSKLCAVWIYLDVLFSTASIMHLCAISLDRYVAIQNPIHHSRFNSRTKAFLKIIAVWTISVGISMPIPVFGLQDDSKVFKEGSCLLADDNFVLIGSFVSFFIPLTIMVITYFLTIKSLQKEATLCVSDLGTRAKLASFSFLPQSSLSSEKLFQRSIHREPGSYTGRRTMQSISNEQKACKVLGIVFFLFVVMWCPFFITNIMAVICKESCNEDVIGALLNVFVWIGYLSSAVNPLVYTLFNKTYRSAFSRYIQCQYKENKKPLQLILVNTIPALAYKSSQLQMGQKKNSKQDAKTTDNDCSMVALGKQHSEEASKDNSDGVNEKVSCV

h5-HT7R = h5-HT7R (Homo sapiens (Human), UniProt P34969); test: cAMP accumulation (LANCE cAMP detection kit) in HEK-293 cells stably expressing h5-HT7R; type: cell-based
Chain of h5-HT7R (P34969 1-432): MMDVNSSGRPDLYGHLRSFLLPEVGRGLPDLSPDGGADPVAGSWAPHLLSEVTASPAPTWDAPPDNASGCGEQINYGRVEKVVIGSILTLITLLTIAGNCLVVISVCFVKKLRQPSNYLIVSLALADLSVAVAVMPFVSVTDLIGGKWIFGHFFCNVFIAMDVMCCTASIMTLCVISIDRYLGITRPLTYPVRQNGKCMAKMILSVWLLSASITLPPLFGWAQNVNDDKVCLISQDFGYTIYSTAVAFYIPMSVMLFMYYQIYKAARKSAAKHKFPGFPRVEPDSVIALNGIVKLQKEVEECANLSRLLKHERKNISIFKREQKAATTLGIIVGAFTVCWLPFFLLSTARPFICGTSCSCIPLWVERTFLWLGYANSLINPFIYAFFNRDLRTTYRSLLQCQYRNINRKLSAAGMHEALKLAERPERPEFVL
Method: (B) HEK-293 cells stably expressing h5-HT7R were stimulated with 10 nM of 5-CT and increasing concentrations of products for one hour. After cell lysis, cAMP production was quantified by a LANCE cAMP detection kit (Perkin Elmer). […] Data points represent the means±SEM from three independent experiments performed in triplicate. The EC50 and IC50 for each drug was determined using GraphPad Prism software.
cAMP accumulation was measured with a LANCE™ cAMP detection kit (Perkin-Elmer Life Sciences, Boston, MA, USA). 12 h before experiment cells were starved. Forty-eight h after transfection, cells were harvested in Hank's balanced salt solution (HBSS) containing 5 mM HEPES, 1 mM isobutylmethylxanthine (IBMX) and 0.1% BSA, PH 7.4. After centrifugation (1000×g, 5 min), cells were resuspended in the same buffer (2×10^6 per ml). The ALEXA™ fluor 647 anti-cAMP antibody solution (1 μl) was added to the cell suspension (100 μl) and 5 μl aliquots of the mixture were dispensed in white 384-well microtiter plates (Optiplate, Perkin Elmer). The cells were then stimulated with different drugs. After 1 h incubation at room temperature in the dark, lysis buffer (0.35% Triton X-100, 10 mM CaCl2, 50 mM HEPES) containing LANCE EU-W8044 labeled streptavidin and biotinylated-cAMP was added to the cells (10 μL per well). After 2 h incubation at room temperature in the dark, the plates were read on a VictorV™ microplate reader (Perkin-Elmer Life Sciences). Concentration/response curves were analyzed using Prism 4 software.
HEK-293 fibroblast stably expressing 5-HT7 receptor were used to compare the effect of different 5-HT7R ligands on the classical Gαs-mediated activation of AC pathway. It was decided to evaluate the lead compounds from two series of ligands, Serodolin and MOA-51 (FIG. 1A).

5-HT7(b) receptors = 5-HT7(b) receptors (Homo sapiens, UniProt P34969); test: BRET between 5-HT7-RLuc and Venus-mini G proteins (G protein recruitment); type: cell-based
Chain of 5-HT7(b) receptors (P34969 whole entry, looked up): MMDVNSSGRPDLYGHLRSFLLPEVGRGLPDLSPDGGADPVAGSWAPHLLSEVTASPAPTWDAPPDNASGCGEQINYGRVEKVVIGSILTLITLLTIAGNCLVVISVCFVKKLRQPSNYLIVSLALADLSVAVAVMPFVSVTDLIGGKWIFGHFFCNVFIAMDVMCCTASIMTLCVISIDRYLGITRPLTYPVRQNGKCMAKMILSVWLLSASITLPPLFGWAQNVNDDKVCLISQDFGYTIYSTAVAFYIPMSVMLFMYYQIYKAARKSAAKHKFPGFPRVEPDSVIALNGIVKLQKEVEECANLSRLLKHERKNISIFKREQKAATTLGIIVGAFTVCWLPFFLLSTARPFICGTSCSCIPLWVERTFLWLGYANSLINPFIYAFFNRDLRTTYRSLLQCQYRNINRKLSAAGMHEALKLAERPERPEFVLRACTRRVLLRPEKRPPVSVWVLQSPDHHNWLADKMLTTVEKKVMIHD
Method: For −mGi, mG12 and mGq cells were also transfected with a receptor described as positively coupled to the G protein: Cells expressing the Adenosine 2 receptor A2R, the Histamine3 receptor H3R or the Ghrelin receptor GHSR were stimulated with adenosine, imetit or ghrelin respectively. Ligand mediated BRET changes are expressed as induced BRET changes which were generated by subtracting at each point the signal obtained on cells incubated with PBS (without ligand).
To evaluate Gαs, Gαq, Gαi recruitment, cells were transiently transfected with 5-HT7R(b) C—terminally fused with donor Rluc (5-HT7R-Rluc) and acceptor NESVenus. mGs, or NES-Venus-mGsq or NES-Venus-mGsi (kindly provided by Pr. N. A. Lambert, Augusta University, Augusta, USA) (Ayoub, M. A., Landomiel, F., Gallay, N., Jegot, G., Poupon, A., Crepieux, P., and Reiter, E. (2015) Assessing Gonadotropin Receptor Function by Resonance Energy Transfer-Based Assays. Front Endocrinol (Lausanne) 6, 130; Wan, Q., Okashah, N., Inoue, A., Nehme, R., Carpenter, B., Tate, C. G., and Lambert, N. A. (2018) Mini G protein probes for active G protein-coupled receptors (GPCRs) in live cells. […] Data were plotted and analysed using GraphPad Prism 4 software for Windows (GraphPad Software Inc, San Diego, CA, USA). […]

For `O=c1[nH]c2ccccc2n1CN1CCN(c2ccc(F)cc2)CC1` [Serodolin], the “ERK phosphorylation in HEK-293 mock cells” value (HEK-293 mock cells) was “neither Serodolin, nor MOA-51 were able to induce ERK phosphorylation”, the “decrease in body temperature, Emax” value (mouse; 1 mg/kg, at 30 min) was −2.9 °C and the “decrease in body temperature, Emax” value (mouse; 3 mg/kg, at 30 min) was −3.6 °C. The “decrease in body temperature, Emax” value (mouse; 10 mg/kg, at 60 min) was −7.9 °C, the IC50 (human 5-HT2A receptor; read-out: RLB 5-HT2A IC50) was 16.9 nM and the Ki (human 5-HT2A receptor; read-out: RLB 5-HT2A Ki) was 2.8 nM. For the same compound, the IC50 (h5-HT7R; 10 nM of 5-CT, one hour, read-out: IC50, decrease of the 5-CT induced cAMP accumulation (antagonist)) was 5 ± 2 nM, the “inhibition of cAMP production when tested alone (inverse agonist effect)” value (h5-HT7R; tested alone) was “around 75%” and the IC50 (h5-HT7R; tested alone, read-out: IC50, inverse agonist effect on cAMP response) was 14 nM. For the same compound, the “Gαs recruitment” value (5-HT7(b) receptors; mGs BRET) was “behaved as inverse for Gαs recruitment” and the “Gαi, Ga12 or Gαq recruitment” value (5-HT7(b) receptors; mGsi, mG12, mGsq BRET) was “neither classical (5-CT, SB 269970) nor biased 5-HT7R ligands (Serodolin) were able to induce the Gαi, Ga12 or Gαq recruitment”.

Source: patent US20240199555A1, “APPLICATIONS OF BIASED LIGANDS OF THE SEROTONIN 5-HT7 RECEPTOR FOR THE TREATMENT OF PAIN, MULTIPLE SCLEROSIS AND THE CONTROL OF THERMOREGULATION” (Centre National de la Recherche Scientifique, priority 2021, published 2024)
